Broadly, the EC50 is the midpoint of the concentration-response curve. High values mean weaker potency, low ones greater potency.

Experimental findings from patent US7723326B2, “Heterocyclic amide derivatives as RXR agonists for the treatment of dyslipidemia, hypercholesterolemia and diabetes” (Janssen Pharmaceutica N.V., priority 2005, dated 2010) are described below.

Several values for one entry are separate records, joined by “and”; a condition that tells them apart may be missing. Equal entries are not always repeated.

Assay [1] has as its system ABCA1 mRNA in THP-1 cells. Description: ABCA1 bDNA assay (ABCA1 mRNA induction). The class given is cell-based. Conditions: Homo sapiens; for EC50: ABCA1 mRNA induction, usually 18-24 hrs; for Emax at 3 µM: relative to MX-6054, read-out: ABCA1 % max MX-6054. The protocol: THP-1 cells, a human monocytic cell line, were obtained from ATCC and maintained in RPMI (Gibco) supplemented with 10% fetal bovine serum (Gibco), 2mM L-glutamine and 1% antibiotic-antimycotic in 5% CO2 at 37° C. For ABCA1 mRNA induction assays, the cells were pelleted and resuspended in RPMI supplemented with 0.5% charcoal treated serum (Hyclone), 2 mM glutamine and 1% antibiotic-antimycotic. The cells were plated at a density of 40,000 cells/90 μl and incubated as above for at least 4 hours before the initiation of treatments. Compounds were prepared as 10 mM stocks in DMSO. For treatments, the compounds were diluted in medium and 10 μl of 10× stocks were added to the cells at a final concentration 0.1% DMSO. The cells were incubated for the desired amount of time (usually 18-24 hrs) and then lyzed with 50 μl of Quantigene HV bDNA lysis buffer which also contained the ABCA1 bDNA probes (probe sequences shown below): […]

Assay [2] deals with T1, RXR ligand binding domain (accession number X52773) fused with the DNA binding domain of yeast GAL4 (Homo sapiens, UniProt P19793).
T1 construct: expressed in transfected cells; host or cells: HEK293
T1 sequence (P19793 227-458 limits assumed): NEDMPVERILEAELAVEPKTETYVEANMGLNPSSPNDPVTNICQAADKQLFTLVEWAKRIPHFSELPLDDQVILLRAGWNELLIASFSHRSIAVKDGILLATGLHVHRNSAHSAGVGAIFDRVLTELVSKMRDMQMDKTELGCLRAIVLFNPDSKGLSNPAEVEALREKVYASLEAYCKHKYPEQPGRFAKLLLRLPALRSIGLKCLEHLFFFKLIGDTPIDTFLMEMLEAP
Description: RXR co-transfection assay (GAL4-LBD luciferase reporter in HEK293 cells). The class given is cell-based. Conditions: 16-18 hours. The protocol: The nucleic acid sequence from 676-1464bp (accession number X52773) encoding the ligand binding domains was subcloned into the pM vector (BD Biosciences Clontech, Palo Alto, Calif.) and were fused with the DNA binding domain of yeast GAL4. HEK293 cells were cultured in DMEM/F12 medium supplemented with 10% FBS and 1% 1-glutamine (growth medium). Cells were seeded at a density of 5-10×10^6 cells in 50 ml of growth medium and left overnight, The medium was removed and the cells were washed with 15 ml of OptiMEM serum free medium (Invitrogen Corp). The cells were transfected using OptiMEM serum free medium and DMRIE transfection reagent (Invitrogen Corp). Approximately 10-30 ng of DNA for the different receptors and 5-10 ng of the luciferase reporter (1:1 ratio for RAR and 4:1 ratio for RXR of receptor DNA:reporter DNA) were gently mixed with 51 μl of DMRIE reagent in a total volume of 17 ml of OptiMEM medium. Eighteen hours after transfection, the cells were washed once with growth medium and then incubated for 6 hrs in 30 ml of growth medium. The cells were then trypsinized, and reseeded at a density of 50,000 per well in 96 well plates and left overnight. The medium was replaced with 90 μl of medium containing DMEM/F12 supplemented with 0.5% charcoal-treated FBS (HyClone; Logan, Utah) and 1% glutamine. Compounds or vehicle were added in 10 μl of 10× concentration of compound or vehicle (0.1% dimethyl sulfoxide). The cells were treated for 16-18 hours, lysed and assayed for luciferase activity using the Steady Gio luciferase assay kit (Promega, Madison, Wis.).
In general terms: In a reporter assay the amount or activity of a reporter protein is the signal.

Turning to `Cc1cc2c(cc1-c1cc(CCC(=O)O)ccc1OC(F)(F)F)N(C(C)C)C(=O)C(C)(C)O2` [Compound 13, 3-[3-(4-Isopropyl-2,2,7-trimethyl-3-oxo-3,4-dihydro-2H-benzo[1,4]oxazin-6-yl)-4-trifluoromethoxy-phenyl]-propionic acid], the concentration giving a half-maximal response (EC50) was greater than 2000 nM in assay [1] and 347 nM in assay [2]. For the molecule `CCN1C(=O)OCc2cc(C)c(-c3cc(/C=C/C(=O)O)ccc3OC(F)(F)F)cc21` [Compound 15, 3-[3-(1-Ethyl-6-methyl-2-oxo-1,4-dihydro-2H-benzo[d][1,3]oxazin-7-yl)-4-trifluoromethoxy-phenyl]-acrylic acid], the concentration giving a half-maximal response (EC50) in assay [1] was greater than 2000 nM.

For the molecule `Cc1cc2c(cc1-c1cc(/C=C/C(=O)O)ccc1OCC(F)(F)F)N(C)C(=O)C(C)(C)O2` [Compound 5, 3-[3-(2,2,4,7-Tetramethyl-3-oxo-3,4-dihydro-2H-benzo[1,4]oxazin-6-yl)-4-(2,2,2-trifluoro-ethoxy)-phenyl]-acrylic acid], the EC50 in assay [1] and in assay [2] was greater than 2000 nM each time. With `Cc1cc2c(cc1-c1cc(/C=C/C(=O)O)ccc1OC(F)(F)F)N(C(C)C)C(=O)C(C)(C)O2` [Compound 4, 3-[3-(4-Isopropyl-2,2,7-trimethyl-3-oxo-3,4-dihydro-2H-benzo[1,4]oxazin-6-yl)-4-trifluoromethoxy-phenyl]-acrylic acid], in assay [1], the Emax at 3 µM stood at 79%. In addition, the 50% effective concentration (EC50) was 430 nM in assay [1] and 98.8 nM in assay [2]. As for `CCN1C(=O)C(C)Oc2cc(C)c(-c3cc(/C=C/C(=O)O)ccc3OC(F)(F)F)cc21` (centres unmarked) [Compound 7, 3-[3-(4-Ethyl-2,7-dimethyl-3-oxo-3,4-dihydro-2H-benzo[1,4]oxazin-6-yl)-4-trifluoromethoxy-phenyl]-acrylic acid], the half-maximal effective concentration (EC50) in assay [1] was greater than 2000 nM. With `CCN1C(=O)OC(C(C)C)c2cc(C)c(-c3cc(CCC(=O)O)ccc3OC(F)(F)F)cc21` (centres unmarked) [Compound 18, 3-[3-(1-Ethyl-4-isopropyl-6-methyl-2-oxo-1,4-dihydro-2H-benzo[d][1,3]oxazin-7-yl)-4-trifluoromethoxy-phenyl]-propionic acid], in assay [1], the Emax at 3 µM stood at 4.5% and the concentration for a half-maximal effect (EC50) was greater than 2000 nM. Further, the concentration for a half-maximal effect (EC50) in assay [2] is greater than 2000 nM. As for `CCN1C(=O)C(C)(C)Oc2cc(C)c(-c3cc(/C=C/C(=O)O)ccc3OC(F)(F)F)cc21` [Compound 1, 3-[3-(4-Ethyl-2,2,7-trimethyl-3-oxo-3,4-dihydro-2H-benzo[1,4]oxazin-6-yl)-4-trifluoromethoxy-phenyl]-acrylic acid], the EC50 in assay [1] was 39.7 nM; in assay [2], 151 nM and 180 nM and 189 nM. As to `CCN1C(=O)C(C)(C)Oc2cc(C)c(-c3cc(/C=C(\C)C(=O)O)ccc3OC(F)(F)F)cc21` [Compound 10, 3-[3-(4-Ethyl-2,2,7-trimethyl-3-oxo-3,4-dihydro-2H-benzo[1,4]oxazin-6-yl)-4-trifluoromethoxy-phenyl]-2-methyl-acrylic acid], in assay [1], the Emax at 3 µM was determined as 37.2%. Further, the EC50 in assay [1] is greater than 2000 nM; in assay [2], 1400 nM.

Turning to `Cc1cc2c(cc1-c1cc(/C=C/C(=O)O)ccc1OC(F)(F)F)N(C)C(=O)C(C)(C)O2` [Compound 3, 3-[3-(2,2,4,7-Tetramethyl-3-oxo-3,4-dihydro-2H-benzo[1,4]oxazin-6-yl)-4-trifluoromethoxy-phenyl]-acrylic acid], in assay [1], the Emax at 3 µM turned out to be 8.4% and the EC50 is greater than 2000 nM. In assay [2], this molecule returned a concentration for a half-maximal effect (EC50) greater than 2000 nM. As for `CCN1C(=O)C(C)(C)Oc2cc(C)c(-c3cc(/C(C)=C/C(=O)O)ccc3OC(F)(F)F)cc21` [Compound 11, 3-[3-(4-Ethyl-2,2,7-trimethyl-3-oxo-3,4-dihydro-2H-benzo[1,4]oxazin-6-yl)-4-trifluoromethoxy-phenyl]-but-2-enoic acid], the Emax at 3 µM in assay [1] stood at 75.5%. For the same molecule, the results for the EC50 in assay [1] and in assay [2] were greater than 2000 nM and 61.2 nM, respectively.

Take `CCN1C(=O)C(C(C)C)Oc2cc(C)c(-c3cc(/C=C/C(=O)O)ccc3OC(F)(F)F)cc21` (centres unmarked) [Compound 9, 3-[3-(4-Ethyl-2-isopropyl-7-methyl-3-oxo-3,4-dihydro-2H-benzo[1,4]oxazin-6-yl)-4-trifluoromethoxy-phenyl]-acrylic acid]: the EC50 in assay [1] was greater than 2000 nM. On the same count and under the same terms, the figure for `CCN1C(=O)OC(C)(C)c2cc(C)c(-c3cc(CCC(=O)O)ccc3OC(F)(F)F)cc21` [Compound 17, 3-[3-(1-Ethyl-4,4,6-trimethyl-2-oxo-1,4-dihydro-2H-benzo[d][1,3]oxazin-7-yl)-4-trifluoromethoxy-phenyl]-propionic acid] is greater than 2000 nM. In assay [1], `CCN1C(=O)OC(C)(C)c2cc(C)c(-c3cc([C@@H]4C[C@H]4C(=O)O)ccc3OC(F)(F)F)cc21` [Compound 19, 2-[3-(1-Ethyl-4,4,6-trimethyl-2-oxo-1,4-dihydro-2H-benzo[d][1,3]oxazin-7-yl)-4-trifluoromethoxy-phenyl]-cyclopropanecarboxylic acid] had a concentration for a half-maximal effect (EC50) greater than 2000 nM. The same measure, in the same setting: the figure for `CCN1C(=O)CN(C(C)C)c2cc(C)c(-c3cc(/C=C/C(=O)O)ccc3OC(F)(F)F)cc21` [Compound 25, 3-[3-(4-Ethyl-1-isopropyl-7-methyl-3-oxo-1,2,3,4-tetrahydro-quinoxalin-6-yl)-4-trifluoromethoxy-phenyl]-acrylic acid] is greater than 2000 nM; for `CCN1CC(C)(C)Oc2cc(C)c(-c3cc(/C=C/C(=O)O)ccc3OC(F)(F)F)cc21` [Compound 27, 3-[3-(4-Ethyl-2,2,7-trimethyl-3,4-dihydro-2H-benzo[1,4]oxazin-6-yl)-4-trifluoromethoxy-phenyl]-acrylic acid] it is greater than 2000 nM. `CCC1Oc2cc(C)c(-c3cc(/C=C/C(=O)O)ccc3OC(F)(F)F)cc2N(CC)C1=O` (centres unmarked) [Compound 8, 3-[3-(2,4-Diethyl-7-methyl-3-oxo-3,4-dihydro-2H-benzo[1,4]oxazin-6-yl)-4-trifluoromethoxy-phenyl]-acrylic acid] came in with an EC50 in assay [1] greater than 2000 nM. `CCN1C(=O)OC(C)(C)c2cc(C)c(-c3cc(/C=C/C(=O)O)ccc3OC(F)(F)F)cc21` [Compound 14, 3-[3-(1-Ethyl-4,4,6-trimethyl-2-oxo-1,4-dihydro-2H-benzo[d][1,3]oxazin-7-yl)-4-trifluoromethoxy-phenyl]-acrylic acid] yielded a 50% effective concentration (EC50) in assay [1] greater than 2000 nM. The molecule `CCN1C(=O)OC(C(C)C)c2cc(C)c(-c3cc([C@@H]4C[C@H]4C(=O)O)ccc3OC(F)(F)F)cc21` (some centres unmarked) [Compound 20, 2-[3-(1-Ethyl-4-isopropyl-6-methyl-2-oxo-1,4-dihydro-2H-benzo[d][1,3]oxazin-7-yl)-4-trifluoromethoxy-phenyl]-cyclopropanecarboxylic acid] gave a concentration for a half-maximal effect (EC50) in assay [1] greater than 2000 nM. In assay [1], `CCN1C(=O)OCc2cc(C)c(-c3cc([C@@H]4C[C@H]4C(=O)O)ccc3OC(F)(F)F)cc21` (racemic) [Compound 21, 2-[3-(1-Ethyl-6-methyl-2-oxo-1,4-dihydro-2H-benzo[d][1,3]oxazin-7-yl)-4-trifluoromethoxy-phenyl]-cyclopropanecarboxylic acid] registered an EC50 greater than 2000 nM. On the same count and under the same terms, the figure for `CCN1C(=O)COc2cc(C)c(-c3cc(/C=C/C(=O)O)ccc3OC(F)(F)F)cc21` [Compound 6, 3-[3-(4-Ethyl-7-methyl-3-oxo-3,4-dihydro-2H-benzo[1,4]oxazin-6-yl)-4-trifluoromethoxy-phenyl]-acrylic acid] is greater than 2000 nM. Still for that read-out and setting: the figure for `CCn1c(=O)c(=O)n(CC)c2cc(-c3cc(/C=C/C(=O)O)ccc3OC(F)(F)F)c(C)cc21` [Compound 24, 3-[3-(1,4-Diethyl-7-methyl-2,3-dioxo-1,2,3,4-tetrahydro-quinoxalin-6-yl)-4-trifluoromethoxy-phenyl]-acrylic acid] is greater than 2000 nM; for `CCN1C(=O)OC(C(C)C)c2cc(C)c(-c3cc(/C=C/C(=O)O)ccc3OC(F)(F)F)cc21` (centres unmarked) [Compound 16, 3-[3-(1-Ethyl-4-isopropyl-6-methyl-2-oxo-1,4-dihydro-2H-benzo[d][1,3]oxazin-7-yl)-4-trifluoromethoxy-phenyl]-acrylic acid] it is greater than 2000 nM.
